How the values were obtained:
Format in all cases: cell-based
[1] = system: ACHN; test: Sensitivity to growth inhibition, ACHN; settings: renal cell carcinoma, AR−
[2] = system: SKRC45; test: Sensitivity to growth inhibition, SKRC45; settings: renal cell carcinoma, AR−
[3] = system: HCC1419; test: Sensitivity to growth inhibition, HCC1419; settings: Luminal breast carcinoma, AR+
[4] = system: HCC202; test: Sensitivity to growth inhibition, HCC202; settings: Luminal breast carcinoma, AR−
[5] = system: MCF10A; test: Sensitivity to growth inhibition, MCF10A; settings: mammary gland epithelium
[6] = system: PPC1; test: Sensitivity to growth inhibition, PPC1; settings: castration resistant prostate cancer, AR−
[7] = system: UACC893; test: Sensitivity to growth inhibition, UACC893; settings: Luminal breast carcinoma, AR+
[8] = system: PANC1; test: Sensitivity to growth inhibition, PANC1; settings: pancreatic adenocarcinoma, AR−
[9] = system: Du145; test: Sensitivity to growth inhibition, Du145; settings: castration resistant prostate cancer, AR−
[10] = system: MDAMB415; test: Sensitivity to growth inhibition, MDAMB415; settings: Luminal breast carcinoma, AR+
[11] = system: C4-2; test: Sensitivity to growth inhibition, C4-2; settings: castration resistant prostate cancer, AR+
[12] = system: NKE; test: Sensitivity to growth inhibition, NKE; settings: normal kidney, AR−
[13] = system: MiaPaca; test: Sensitivity to growth inhibition, MiaPaca; settings: pancreatic adenocarcinoma, AR−
[14] = system: ZR7530; test: Sensitivity to growth inhibition, ZR7530; settings: Luminal breast carcinoma, AR+
[15] = system: RCC45; test: Sensitivity to growth inhibition, RCC45; settings: renal cell carcinoma, AR−
[16] = system: CAMA1; test: Sensitivity to growth inhibition, CAMA1; settings: Luminal breast carcinoma, AR+
[17] = system: MDAMB453; test: Sensitivity to growth inhibition, MDAMB453; settings: Luminal breast carcinoma, AR+
[18] = system: SUM185PE; test: Sensitivity to growth inhibition, SUM185PE; settings: Luminal breast carcinoma, AR+
[19] = system: BT474; test: Sensitivity to growth inhibition, BT474; settings: Luminal breast carcinoma, AR+
[20] = system: Hep3B; test: Sensitivity to growth inhibition, Hep3B; settings: hepatocellular carcinoma, AR +
[21] = system: LNCaP; test: Sensitivity to growth inhibition, LNCaP; settings: castration resistant prostate cancer, AR+
[22] = system: EFM192A; test: Sensitivity to growth inhibition, EFM192A; settings: Luminal breast carcinoma, AR−
[23] = system: VCaP; test: Sensitivity to growth inhibition, VCaP; settings: castration resistant prostate cancer, Armut
[24] = system: MRC5; test: Sensitivity to growth inhibition, MRC5; settings: normal fibroblasts, AR−
[25] = system: CWR22R; test: cells
[26] = system: Hela; test: Inhibition of growth / toxicity in non-target Hela cells
Description: (§1) This example provides a table (below) of the compounds of the present disclosure and their activity towards four different cell lines (i.e., CWR22R, HeLa, PC3, and MDA-MB-231). The IC50 for inhibition of growth is divided into 4 categories: A<1 μM, B 1-5 μM, C 5-20 μM, D>20 μM.
(§2) All compounds were tested for toxicity using 4 cells lines, target cells—CWR22R and non-target cells, Hela, PC3 and MDA-MB-231 (FIGS. 1A-F).

[27] = system: normal hepatocytes; test: Sensitivity to growth inhibition, normal hepatocytes
[28] = system: HT1080; test: Sensitivity to growth inhibition, HT1080; settings: fibrosarcoma AR−
[29] = system: ZR751; test: Sensitivity to growth inhibition, ZR751; settings: Luminal breast carcinoma, AR+
[30] = system: AU565; test: Sensitivity to growth inhibition, AU565; settings: Luminal breast carcinoma, AR+
[31] = system: HepG2; test: Sensitivity to growth inhibition, HepG2; settings: hepatocellular carcinoma, AR +
[32] = system: MDA-MB-231; test: Inhibition of growth / toxicity in non-target MDA-MB-231 cells; settings: Homo sapiens
Description: as §1, §2

[33] = system: HMEC; test: Sensitivity to growth inhibition, HMEC; settings: normal breast
[34] = system: T47D; test: Sensitivity to growth inhibition, T47D; settings: Luminal breast carcinoma, AR+
[35] = system: PC3; test: Inhibition of growth / toxicity in non-target PC3 cells; settings: castration resistant prostate cancer, AR−
Description: as §1, §2

[36] = system: MCF7; test: Sensitivity to growth inhibition, MCF7; settings: Luminal breast carcinoma, AR+

Structure (SMILES): CCCn1c2ccccc2c2cc(C(C)=O)ccc21 [Compound 1-3, 1-(9-propyl-9H-carbazol-3-yl)ethanone]
- Compound 1-3 sensitivity [1]: R
- Compound 1-3 sensitivity [2]: R
- Compound 1-3 sensitivity [3]: R
- Compound 1-3 sensitivity [4]: S
- Compound 1-3 sensitivity [5]: R
- Compound 1-3 sensitivity [6]: R
- Compound 1-3 sensitivity [7]: R
- Compound 1-3 sensitivity [8]: R
- Compound 1-3 sensitivity [9]: R
- Compound 1-3 sensitivity [10]: S
- Compound 1-3 sensitivity [11]: S
- Compound 1-3 sensitivity [12]: R
- Compound 1-3 sensitivity [13]: R
- Compound 1-3 sensitivity [14]: S
- Compound 1-3 sensitivity [15]: R
- Compound 1-3 sensitivity [16]: R
- Compound 1-3 sensitivity [17]: S
- Compound 1-3 sensitivity [18]: S
- Compound 1-3 sensitivity [19]: S
- Compound 1-3 sensitivity [20]: S
- Compound 1-3 sensitivity [21]: S
- Compound 1-3 sensitivity [22]: S
- Compound 1-3 sensitivity [23]: R
- Compound 1-3 sensitivity [24]: R
- Compound 1-3 sensitivity ([25]; CWR22R, castration resistant prostate cancer, AR+): S
- IC50 ([25]; Homo sapiens, 22Rv1, CWR22R, read-out: IC50 for inhibition of growth): < 1 µM
- Compound 1-3 sensitivity ([26]; Hela, cervix adenocarcinoma, AR−): R
- IC50 ([26]; Homo sapiens, HeLa): > 20 µM
- Compound 1-3 sensitivity [27]: R
- Compound 1-3 sensitivity [28]: R
- Compound 1-3 sensitivity [29]: S
- Compound 1-3 sensitivity [30]: S
- Compound 1-3 sensitivity [31]: S
- IC50 [32]: > 20 µM
- Compound 1-3 sensitivity [33]: R
- Compound 1-3 sensitivity [34]: S
- Compound 1-3 sensitivity [35]: R
- Compound 1-3 sensitivity [36]: S

Source: patent US20160024083A1, “COMPOUNDS AND METHODS FOR TREATING CANCERS” (HEALTH RESEARCH, INC., priority 2013, published 2016)
